Results taken from PubChem BioAssay (NCI).
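Values below derive from 48-hour exposures of cells grown in 96-well plates, with endpoints linearly interpolated between the two concentrations bracketing the appropriate inhibition level. The concentration for 50% growth inhibition is given as GI50. TGI: concentration producing complete growth inhibition.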

Tests used:
Assay in all cases: DTP human tumour cell line panel, 48 h
[1] = test system: HL-60(TB) leukemia
[2] = test system: NCI/ADR-RES ovarian
[3] = test system: RPMI-8226 leukemia
[4] = test system: SF-295 CNS
[5] = test system: SW-620 colon
[6] = test system: HOP-92 NSCLC
[7] = test system: SK-OV-3 ovarian
[8] = test system: M14 melanoma
[9] = test system: MOLT-4 leukemia
[10] = test system: MALME-3M melanoma

| Structure (SMILES) | TGI [1] [µM] | TGI [2] [µM] | TGI [3] [µM] | TGI [4] [µM] | TGI [5] [µM] | TGI [6] [µM] | TGI [7] [µM] | TGI [8] [µM] | TGI [9] [µM] | TGI [10] [µM] | GI50 [1] [µM] | GI50 [2] [µM] | GI50 [3] [µM] | GI50 [4] [µM] | GI50 [5] [µM] | GI50 [6] [µM] | GI50 [7] [µM] | GI50 [8] [µM] | GI50 [9] [µM] | GI50 [10] [µM] |
| --- | --- | --- | --- | --- | --- | --- | --- | --- | --- | --- | --- | --- | --- | --- | --- | --- | --- | --- | --- | --- |
| CC[C@]12CCCN3CCc4c(n(c5ccccc45)C(=O)C1)[C@@H]32 | 8.51 | > 34.5 | > 65.1 | 18.4 | > 65 | > 100 | 87.7 | > 65.5 | > 58.2 | > 67.9 | – | – | – | – | – | – | – | – | – | – |
| Cc1ccc(S(=O)(=O)OC2CCN(C)CC2)cc1 | 37.3 | > 100 | 49.8 | > 100 | 42 | 42.3 | > 100 | > 100 | 36.6 | 37.9 | – | – | – | – | – | – | – | – | – | – |
| O=C[C@@H](CO)O[C@H](C=O)c1c[nH]c(=O)[nH]c1=O | 376 | 536 | 672 | 1150 | 646 | 237 | 473 | 527 | 605 | 253 | – | – | – | – | – | – | – | – | – | – |
| COc1cc(C(=O)/C=C/c2c(C)n([O-])c3ccc(C)cc3[n+]2=O)cc(OC)c1OC | 6.15 | > 70.6 | 17.6 | > 68 | 3.02 | > 27.1 | > 100 | 10.3 | > 29.8 | 5.2 | 2.32 | 8.47 | 2.87 | 22.8 | 1.53 | 5.56 | 32.7 | 4.27 | 3.57 | 2.24 |
| COc1cc(NS(C)(=O)=O)ccc1Nc1c2ccc([N+](=O)[O-])cc2nc2c(C)cccc12 | 3.57 | 35.1 | 1.99 | 11.1 | 12.2 | 1.68 | 11.5 | 11.2 | 4.37 | 7.07 | 0.302 | 6.95 | 0.18 | 0.171 | 0.349 | 0.111 | 0.891 | 0.228 | 0.0409 | 0.717 |
| COc1ccccc1NC(=O)c1sc2nc3c(cc2c1N)C(=O)CCC3 | > 100 | > 100 | > 100 | > 100 | – | – | > 100 | > 100 | > 100 | > 100 | > 100 | 7.14 | > 100 | 1.75 | – | – | 3.59 | 2.86 | > 100 | 1.75 |
| COC(=O)CCC(=O)C(=O)OC | 61600 | – | 51200 | – | – | 82200 | 62000 | – | – | – | 23600 | 72600 | 17200 | 42000 | 53600 | 19300 | 11700 | 32300 | 34800 | 37900 |
| CC12CCC3C(CCC4Cc5[nH]c6ccccc6c5CC43C)C1CCC2O (stereo not drawn) | 2.33 | 5.54 | 4.52 | 3.26 | > 100 | > 100 | > 100 | > 19.8 | > 100 | > 100 | 0.381 | 0.481 | 1.13 | 0.3 | 0.497 | > 100 | 2.81 | 0.753 | 2.55 | 2.92 |
| CCCCC[C@H](O)/C=C/[C@@H]1[C@@H](C/C=C\CCCC(=O)O)[C@@H](O)C[C@H]1O | > 100 | > 100 | > 100 | > 100 | > 100 | > 100 | > 100 | – | > 100 | > 100 | > 100 | > 100 | > 100 | > 100 | > 100 | > 100 | > 100 | – | > 100 | > 100 |
| CCSCC1CC(O)(c2ccccc2)C(c2ccccc2)C(c2ccc(Cl)cc2)O1 (stereo not drawn) | 8.28 | 5.34 | 4.66 | 3.73 | 4.39 | – | 7.33 | 3.4 | 9.82 | 3.18 | 4.08 | 1.97 | 1.56 | 1.56 | 1.82 | – | 2.5 | 1.81 | 1.73 | 1.58 |
| O=C1c2ccccc2-c2c1c1ccccc1c(=O)n2CCCCNCCCn1c2c(c3ccccc3c1=O)C(=O)c1ccccc1-2 | 23.3 | 1.72 | 0.755 | 2.33 | 0.528 | 3.45 | 50 | 4.18 | 0.452 | 6.03 | 8.19 | 0.582 | 0.0193 | 0.27 | 0.022 | 0.994 | 5.35 | 0.76 | 0.016 | 1.41 |
| CCc1nc(N)nc(N)c1-c1ccc(NCCN)c([N+](=O)[O-])c1 | > 100 | > 100 | > 88.8 | > 100 | > 100 | > 100 | > 100 | 75.5 | > 82.8 | 40.7 | – | – | – | – | – | – | – | – | – | – |
| O=C(Nc1ccc(Cl)c(Cl)c1)c1cccc(NC2=C(Cl)C(=O)N(Cc3ccccc3)C2=O)c1 | > 100 | 88.9 | 44.7 | > 100 | > 100 | – | > 100 | > 100 | 78.5 | > 100 | 45.8 | 24.4 | 14.4 | 49.7 | 48.8 | – | > 100 | 66 | 6.36 | 62.1 |
| Cc1cc2nc(C(C)C(=O)c3ccc(Cl)cc3)c(=O)[nH]c2cc1C (stereo not drawn) | > 100 | > 100 | > 100 | > 100 | > 100 | > 100 | > 100 | > 100 | > 100 | > 100 | – | – | – | – | – | – | – | – | – | – |
| O=[N+]([O-])c1ccc(S(=O)(=O)Cc2ccccc2)c([N+](=O)[O-])c1 | 4.03 | > 51.8 | 5.78 | 33.6 | 20.1 | 3.38 | 13.2 | 3.37 | – | 6.2 | – | – | – | – | – | – | – | – | – | – |
